In ChEMBL document CHEMBL5113463, “Discovery and preclinical evaluations of JBD0131, a novel nitrodihydro-imidazooxazole anti-tuberculosis agent” (Bioorg Med Chem Lett, 2022):
In brackets after ≈: the same amount, converted by molar mass.

System: Mycobacterium tuberculosis
Test: Antimycobacterial activity against clinical isolate multidrug resistant Mycobacterium tuberculosis H37Rv assessed as bacterial growth inhibition
Assay type: functional

C[C@]1(COc2ccc(N3CCC(Oc4ccc(OC(F)(F)F)cc4)CC3)cc2)Cn2cc([N+](=O)[O-])nc2O1
MIC50: 0.002 µg/mL (≈ 0.00374 µM)
MIC90: 0.003 µg/mL (≈ 0.00561 µM)

C[C@]1(CN2Cc3nc(-c4ccc(F)cc4)sc3C2)CN=C(N)O1
MIC50: 0.011 µg/mL (≈ 0.0331 µM)
MIC90: 0.035 µg/mL (≈ 0.105 µM)

NNC(=O)c1ccncc1 [ISONIAZID]
MIC50: 4.37 µg/mL (≈ 31.9 µM)
MIC90: > 40 µg/mL

NC[C@H]1O[C@H](O[C@H]2[C@H](O)[C@@H](O[C@H]3O[C@H](CO)[C@@H](O)[C@H](N)[C@H]3O)[C@H](N)C[C@@H]2N)[C@H](O)[C@@H](O)[C@@H]1O [KANAMYCIN]
MIC50: 1.24 µg/mL (≈ 2.55 µM)
MIC90: > 40 µg/mL

CO[C@H]1/C=C/O[C@@]2(C)Oc3c(C)c(O)c4c(O)c(c(/C=N/N5CCN(C)CC5)c(O)c4c3C2=O)NC(=O)/C(C)=C\C=C\[C@H](C)[C@H](O)[C@@H](C)[C@@H](O)[C@@H](C)[C@H](OC(C)=O)[C@@H]1C [RIFAMPIN]
MIC50: > 40 µg/mL
MIC90: > 40 µg/mL
